Source: US8901118B2, “Compounds and methods for kinase modulation, and indications therefor” (Plexxikon Inc., priority 2010, dated 2014)

Experiments:
[1] = target: T1, CYP1A2 (Homo sapiens, UniProt P05177); assay: CYP1A2 inhibition (fluorescent substrate CEC); type: in vitro ADME; details: read-out: Cyp IC50 1A2
T1 sequence (P05177 1-516): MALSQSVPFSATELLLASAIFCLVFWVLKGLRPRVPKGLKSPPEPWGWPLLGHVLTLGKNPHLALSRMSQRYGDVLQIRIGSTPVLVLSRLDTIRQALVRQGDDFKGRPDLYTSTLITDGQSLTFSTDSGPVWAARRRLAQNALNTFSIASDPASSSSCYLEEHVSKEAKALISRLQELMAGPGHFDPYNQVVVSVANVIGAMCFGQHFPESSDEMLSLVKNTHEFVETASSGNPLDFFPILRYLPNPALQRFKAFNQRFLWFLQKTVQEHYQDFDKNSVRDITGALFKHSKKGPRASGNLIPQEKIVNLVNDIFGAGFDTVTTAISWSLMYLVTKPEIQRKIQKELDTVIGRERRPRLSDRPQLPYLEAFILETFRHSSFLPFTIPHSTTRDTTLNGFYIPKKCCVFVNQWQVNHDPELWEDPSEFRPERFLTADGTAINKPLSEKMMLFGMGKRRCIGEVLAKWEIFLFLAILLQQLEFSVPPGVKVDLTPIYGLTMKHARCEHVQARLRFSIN
Summary of the method: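 Test compounds, 10-point 1:1 serial dilutions in NADPH-regenerating cofactor mix, were preincubated 10 min at 37° C before recombinant enzyme and fluorogenic substrate reactions at 37° C (CYP1A2 15 min; CYP2C9 45 min; CYP2C19, 2D6 30 min). Product fluorescence was read at 409 ex with 460 em (1A2, 2C19) or 530 em (2C9, 2D6), and IC50 fitted from signal versus concentration.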

[2] = target: Fms kinase (Homo sapiens, UniProt P07333); assay: Fms kinase biochemical activity assay (AlphaScreen, biotin-(E4Y)10 phosphorylation); details: 100 μM ATP; read-out: Biochemical Inhibition IC50 Fms
Summary of the method: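 Fms kinase (1 ng/well) phosphorylating 30 nM biotin-(E4Y)10 with 100 μM ATP in 25 mM Hepes pH 7.5, MgCl2/MnCl2, 5% DMSO, 20 min at 30 °C. Phosphotyrosine detected by AlphaScreen streptavidin donor and PY20 acceptor beads; IC50 from signal versus compound concentration.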

Fms kinase, sequence (P07333 20-972): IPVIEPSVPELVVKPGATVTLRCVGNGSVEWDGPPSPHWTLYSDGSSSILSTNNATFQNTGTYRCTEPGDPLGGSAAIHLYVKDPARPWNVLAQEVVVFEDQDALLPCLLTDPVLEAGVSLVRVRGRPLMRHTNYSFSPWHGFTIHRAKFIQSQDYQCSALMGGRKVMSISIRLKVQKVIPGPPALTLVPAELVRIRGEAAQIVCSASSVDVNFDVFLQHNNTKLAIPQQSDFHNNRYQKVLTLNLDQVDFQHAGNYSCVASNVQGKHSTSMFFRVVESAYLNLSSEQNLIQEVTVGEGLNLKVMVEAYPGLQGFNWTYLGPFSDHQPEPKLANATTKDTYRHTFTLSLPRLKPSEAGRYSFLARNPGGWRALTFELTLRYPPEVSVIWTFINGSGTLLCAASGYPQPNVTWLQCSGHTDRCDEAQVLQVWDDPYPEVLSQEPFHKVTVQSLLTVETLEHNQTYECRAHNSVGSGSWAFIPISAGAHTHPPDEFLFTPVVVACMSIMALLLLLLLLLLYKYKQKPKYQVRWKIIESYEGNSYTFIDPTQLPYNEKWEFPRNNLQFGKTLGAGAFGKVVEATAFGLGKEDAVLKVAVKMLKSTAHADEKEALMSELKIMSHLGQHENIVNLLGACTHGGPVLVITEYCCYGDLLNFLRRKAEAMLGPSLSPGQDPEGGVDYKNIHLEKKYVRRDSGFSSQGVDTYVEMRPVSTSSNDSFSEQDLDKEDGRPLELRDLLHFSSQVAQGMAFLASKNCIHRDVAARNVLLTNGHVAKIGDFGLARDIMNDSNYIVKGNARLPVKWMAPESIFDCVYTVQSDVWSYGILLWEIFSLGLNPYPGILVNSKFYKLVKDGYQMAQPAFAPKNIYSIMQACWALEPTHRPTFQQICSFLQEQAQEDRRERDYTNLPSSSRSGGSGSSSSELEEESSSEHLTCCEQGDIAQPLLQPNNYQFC

SMILES	IC50 [1] [µM]	IC50 [2] [µM]
CCc1ccc(Nc2ccc(Cc3c[nH]c4ncnc(OCCOC)c34)c(F)n2)cn1 [Compound P-4016, (6-Ethyl-pyridin-3-yl)-{6-fluoro-5-[4-(2-methoxy-ethoxy)-7H-pyrrolo[2,3-d]pyrimidin-5-ylmethyl]-pyridin-2-yl}-amine]	> 10	< 0.01
COc1ccc(Nc2ccc(C(=O)c3c[nH]c4ncc(C)cc34)c(F)n2)cn1 [Compound P-3040, [2-Fluoro-6-(6-methoxy-pyridin-3-ylamino)-pyridin-3-yl]-(5-methyl-1H-pyrrolo[2,3-b]pyridin-3-yl)-methanone]	> 10	< 0.1
CCc1ccc(Nc2ccc(Cc3c[nH]c4ncnc(C5CC5)c34)c(F)n2)cn1 [Compound P-4028, [5-(4-Cyclopropyl-7H-pyrrolo[2,3-d]pyrimidin-5-ylmethyl)-6-fluoro-pyridin-2-yl]-(6-ethyl-pyridin-3-yl)-amine]	> 10	< 0.01
CCOc1ncnc2[nH]cc(C(=O)c3ccc(Nc4ccc(OC)nc4)nc3F)c12 [Compound P-4025, (4-Ethoxy-7H-pyrrolo[2,3-d]pyrimidin-5-yl)-[2-fluoro-6-(6-methoxy-pyridin-3-ylamino)-pyridin-3-yl]-methanone]	> 10	< 1
COc1ccc(Nc2ccc(Cc3c[nH]c4ncnc(C)c34)c(F)n2)cn1 [Compound P-4002, [6-Fluoro-5-(4-methyl-7H-pyrrolo[2,3-d]pyrimidin-5-ylmethyl)-pyridin-2-yl]-(6-methoxy-pyridin-3-yl)-amine]	> 10	< 0.1
CCn1cc(Nc2ccc(Cc3c[nH]c4ncnc(OCCOC)c34)c(F)n2)cn1 [Compound P-4014, (1-Ethyl-1H-pyrazol-4-yl)-{6-fluoro-5-[4-(2-methoxy-ethoxy)-7H-pyrrolo[2,3-d]pyrimidin-5-ylmethyl]-pyridin-2-yl}-amine]	> 10	< 0.01
CCc1ccc(Nc2ccc(C(=O)c3c[nH]c4ncnc(C5CC5)c34)c(F)n2)cn1 [Compound P-4029, (4-Cyclopropyl-7H-pyrrolo[2,3-d]pyrimidin-5-yl)-[6-(6-ethyl-pyridin-3-ylamino)-2-fluoro-pyridin-3-yl]-methanone]	> 10	< 0.01
